Data taken from paper PMC9697831 (Journal of Fungi, 2022).
Positions of bridges follow the written chain, without caps; N, C: chain ends. No end group written: not given here.

Legend:
hKv1.3 [1] = target: T1, hKv1.3 (Homo sapiens, UniProt P22001); assay: Whole-cell patch clamp of hKv1.3 currents in activated human T lymphocytes; format: cell-based; settings: for time needed to reach equilibrium (steady-state) block of hKv1.3: 1 nM; for Hill coefficient (H): Hill equation fit of concentration-response on hKv1.3, n = 3-5; for Activity on hKv1.3: RP-HPLC fraction of His-tagged recombinant peptide, patch clamp; for recovery from block on perfusion with toxin-free solution: washout
T1 construct: endogenous in cells
T1 sequence (P22001 whole entry, the tested form may be a part): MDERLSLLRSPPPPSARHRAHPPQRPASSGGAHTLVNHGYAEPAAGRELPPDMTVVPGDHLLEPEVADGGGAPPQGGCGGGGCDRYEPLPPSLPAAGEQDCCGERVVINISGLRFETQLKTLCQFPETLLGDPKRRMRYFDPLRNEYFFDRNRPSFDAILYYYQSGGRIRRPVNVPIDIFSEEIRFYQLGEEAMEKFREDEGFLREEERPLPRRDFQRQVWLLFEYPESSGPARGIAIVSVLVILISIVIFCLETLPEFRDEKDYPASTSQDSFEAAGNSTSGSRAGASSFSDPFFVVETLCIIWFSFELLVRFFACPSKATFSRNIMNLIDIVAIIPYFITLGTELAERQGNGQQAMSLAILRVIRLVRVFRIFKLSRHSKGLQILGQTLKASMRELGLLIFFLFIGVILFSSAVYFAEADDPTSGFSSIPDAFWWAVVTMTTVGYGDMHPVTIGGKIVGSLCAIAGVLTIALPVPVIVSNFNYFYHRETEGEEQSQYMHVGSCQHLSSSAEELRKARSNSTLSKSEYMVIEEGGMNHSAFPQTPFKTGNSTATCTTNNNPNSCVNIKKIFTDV
Procedure: Human venous blood from anonymized healthy donors was obtained from a blood bank. Peripheral blood mononuclear cells (PBMCs) were isolated by density gradient centrifugation using Histopaque1077 (Cat. No 10771). The obtained cells were resuspended in RPMI 1640 medium containing 10% fetal calf serum, 100 μg/mL penicillin, 100 μg/mL streptomycin, and […], seeded at a density of 5 × 10^5 cells per ml in a 24-well culture plate and grown in a 5% CO2 incubator at 37 °C for 2–5 days. Phytohemagglutinin A (Cat. No. L1668) was added to the medium at concentrations of 5, 7, and 10 μg/mL to increase the voltage-gated potassium ion channel expression.
Electrophysiological measurements were performed by using the patch clamp technique in a whole-cell configuration on voltage-clamped cells using the Axon Multiclamp 700B amplifier and the Axon Digidata1440 digitizer; the Clampex 10.7 software was used for data acquisition (all from Molecular Devices, Sunnyvale, CA, USA). Micropipettes were pulled from GC150F-15 borosilicate capillaries (Harvard Apparatus Kent, Edenbridge, UK), resulting in 3–4 MΩ resistance in the bath solution. The extracellular solution (bath solution) contained 145 mM NaCl, 5 mM KCl, 1 mM MgCl2, 2.5 mM CaCl2, 5.5 mM glucose, and 10 mM HEPES, with a pH of 7.35 and an osmolarity between 302 and 308 mOsM/L. The pipette filling solution (intracellular) consisted of 140 mM KF, 2 mM MgCl2, 1 mM CaCl2, 10 mM HEPES, and 11 mM EGTA, with a pH of 7.22 and an osmolarity of 295 mOsM/L. When the toxins were dissolved in bath solution at different molar concentrations, they were supplemented with 0.1 mg/mL bovine serum albumin (BSA). To record hKv1.3 in activated human T lymphocytes (Kv1.3 overexpression), 15 ms-long depolarizing pulses were applied at +50 mV from a holding potential of −120 mV every 15 s. Current traces were low-pass filtered by the analog four-pole Bessel filters of the amplifiers, and the sampling frequency was set at 20 kHz, which was at least twice that of the filter cutoff frequency. The control and test solutions were perfused into the cell through a gravity flow perfusion system. The excess bath solution was constantly removed with vacuum suction.
The effect of the toxin at a given molar concentration was calculated as the remaining current fraction (RCF = I/I0, where I0 is the peak current in the absence of the toxin and I is the peak current at the equilibrium block at a given toxin concentration). The data points on the dose-response curves represent the mean of 3–5 individual measurements. The data points were fitted with the Hill equation, RCF=KdH/KdH+toxin^H where [toxin] is the concentration of the toxin and H is the Hill coefficient. The best fit curve gave the Kd value of a given toxin.

Kv1.3 channel = settings: ref 11 (charybdotoxin), 12 (noxiustoxin), 13 (Vm24), 14 (ShK), 15 (margatoxin), 16 (HsTx1); cited from earlier work
Text: Voltage-gated potassium (Kv) channels regulate the selective efflux of K^+ through the plasma membrane, thereby shaping the action potentials in excitable cells and regulating many other cellular functions in non-excitable cells. The Kv channel family includes 12 subfamilies (Kv1-Kv12). The Kv1 (Shaker) subfamily consists of eight voltage-gated potassium channels belonging to the delayed rectifier class (Kv1.1–Kv1.8). Of this Kv subfamily, the Kv1.3 channel is mainly expressed in neurons and immune cells, and therefore, channel inhibition in these cells may be useful in the t ...

rat Kv1.3 (rKv1.3) = settings: rKv1.3 expressed in oocytes; cited from earlier work
Text: Anuroctoxin (AnTx, α-KTx 6.12) is a small peptide consisting of 35 amino acids (4109 Da). […] Ts6 (α-KTx 12.1) consists of 40 amino acids with a molecular mass of 4506 Da. Ts6 was isolated from the venom of the scorpion Tytyus serrulatus and inhibits hKv1. ... || In the preliminary experiments to evaluate the biological activity of the recombinant toxins, peptide concentrations slightly higher than the reported Kd values for the native toxins were used.

hKv1.3 [2] = target: T1, hKv1.3; settings: 100 nM, hKv1.3 expressed in CHO cells; cited from earlier work
Procedure: As mentioned earlier, the Kd values of Tag-Vm24 and Untag-AnTx were very similar to those reported for the native toxins. […] The Kd value of the native Ts6 was determined using Xenopus oocytes expressing rat Kv1.3 (rKv1.3). […] Differences in the type of cell expression system as well as the use of a channel from di ...

Molecule | Hill coefficient (H) (hKv1.3 [1]) | Activity on hKv1.3 (hKv1.3 [1]) | recovery from block on perfusion with toxin-free solution (hKv1.3 [1]) | concentration range in which the toxin blocks the Kv1.3 channel (Kv1.3 channel) | further results
CSCC[C@@H]1NC(=O)[C@@H]2CSSC[C@H](NC(=O)[C@H](CCC(=O)O)NC(=O)[C@H](CCCCN)NC(=O)[C@H](CCC(N)=O)NC(=O)[C@H](CCCCN)NC(=O)[C@H](CC(=O)O)NC(=O)[C@H](CC(=O)O)NC(=O)[C@H](CC(=O)O)NC(=O)[C@H](CC(=O)O)NC(=O)[C@H](Cc3c[nH]cn3)NC(=O)[C@H](Cc3c[nH]cn3)NC(=O)[C@H](Cc3c[nH]cn3)NC(=O)[C@H](Cc3c[nH]cn3)NC(=O)[C@H](Cc3c[nH]cn3)NC(=O)[C@H](Cc3c[nH]cn3)NC(=O)[C@H](CCC(N)=O)NC(=O)[C@H](CC(C)C)NC(=O)[C@H](Cc3ccccc3)NC(=O)[C@@H](N)CCC(=O)O)C(=O)N[C@@H]([C@@H](C)O)C(=O)NCC(=O)N3CCC[C@H]3C(=O)N[C@@H](CCC(N)=O)C(=O)N[C@@H](Cc3c[nH]cn3)C(=O)N[C@H]3CSSC[C@H](NC(=O)[C@H](CCCCN)NC(=O)[C@H](CCCNC(=N)N)NC(=O)[C@H](CC(N)=O)NC1=O)C(=O)N[C@@H](CCCCN)C(=O)N[C@H]1CSSC[C@H](NC(=O)[C@H](Cc4ccccc4)NC(=O)[C@H](CC(N)=O)NC(=O)[C@H]([C@@H](C)O)NC3=O)C(=O)N[C@@H](CCCNC(=N)N)C(=O)N[C@@H](CCCCN)C(=O)N[C@@H](CC(N)=O)C(=O)N[C@@H](CCCCN)C(=O)N[C@@H](CSSC[C@@H](C(=O)N[C@@H](CCCCN)C(=O)O)NC(=O)[C@H](CC(N)=O)NC(=O)[C@H](Cc3ccccc3)NC1=O)C(=O)N[C@@H]([C@@H](C)O)C(=O)N[C@@H](Cc1c[nH]cn1)C(=O)NCC(=O)N[C@@H](CCCCN)C(=O)N2 [Tag-AnTx] | 0.91 | Positive | full recovery | – | time needed to reach equilibrium (steady-state) block of hKv1.3 (hKv1.3 [1]): ~ 2.5 min
CSCC[C@@H]1NC(=O)[C@@H]2CSSC[C@H](NC(=O)[C@H](CCC(=O)O)NC(=O)[C@H](CCCCN)NC(=O)[C@@H](N)CCC(N)=O)C(=O)N[C@@H]([C@@H](C)O)C(=O)NCC(=O)N3CCC[C@H]3C(=O)N[C@@H](CCC(N)=O)C(=O)N[C@@H](Cc3c[nH]cn3)C(=O)N[C@H]3CSSC[C@H](NC(=O)[C@H](CCCCN)NC(=O)[C@H](CCCNC(=N)N)NC(=O)[C@H](CC(N)=O)NC1=O)C(=O)N[C@@H](CCCCN)C(=O)N[C@H]1CSSC[C@H](NC(=O)[C@H](Cc4ccccc4)NC(=O)[C@H](CC(N)=O)NC(=O)[C@H]([C@@H](C)O)NC3=O)C(=O)N[C@@H](CCCNC(=N)N)C(=O)N[C@@H](CCCCN)C(=O)N[C@@H](CC(N)=O)C(=O)N[C@@H](CCCCN)C(=O)N[C@@H](CSSC[C@@H](C(=O)N[C@@H](CCCCN)C(=O)O)NC(=O)[C@H](CC(N)=O)NC(=O)[C@H](Cc3ccccc3)NC1=O)C(=O)N[C@@H]([C@@H](C)O)C(=O)N[C@@H](Cc1c[nH]cn1)C(=O)NCC(=O)N[C@@H](CCCCN)C(=O)N2 [Untag-AnTx] | – | – | – | – | Kd (hKv1.3 [1]; whole-cell patch clamp, activated human peripheral T lymphocytes, 15 ms pulses to +50 mV from -120 mV every 15 s, Hill equation fitted to remaining current fraction, mean ± SEM, n = 3-5, read-out: Kd for block of hKv1.3): 0.73 nM
EFHHHHHHDDDDKWCSTCLDLACGASRECYDPCFKAFGRAHGKCMNNKCRCYT (disulfide 15-18, 23-44, 29-49, 33-51) [Tag-Ts6] | 1.06 | Positive | complete recovery | – | block of more than 50% of the Kv1.3 current (hKv1.3 [1]; 100 nM, 6x-His-tagged peptide): could not be replicated; time of onset of equilibrium block and complete recovery of peak current (hKv1.3 [1]; progressively increasing concentrations): a few seconds
EFLQHHHHHHIEGRAAAISCVGSPECPPKCRAQGCKNGKCMNRKCKCYYC (disulfide 20-40, 26-45, 30-47, 35-50) [Tag-Vm24] | 0.92 | Positive | not reversible | – | time needed to achieve equilibrium block of hKv1.3 (hKv1.3 [1]; 10 pM): ~ 25 min; time needed to reach equilibrium (steady-state) block of hKv1.3 (hKv1.3 [1]): ~ 5 min
charybdotoxin | – | – | – | nanomolar range | –
margatoxin (TIINVKCTSPKQCLPPCKAQFGQSAGAKCMNGKCKCYPH; UniProt P40755 1-39, looked up) | – | – | – | picomolar range | –
maurotoxin (VSCTGSKDCYAPCRKQTGCPNAKCINKSCKCYGC; UniProt P80719 1-34, looked up) | – | – | – | – | Kd (rat Kv1.3 (rKv1.3)): 180 nM; sensitivity of hKv1.3 to the toxin (hKv1.3 [2]): almost insensitive
noxiustoxin: toxin that blocks the Kv1.3 channel (TIINVKCTSPKQCSKPCKELYGSSAGAKCMNGKCKCYNN; UniProt P08815 1-39, looked up) | – | – | – | nanomolar range | –
